Where a name gives a salt, the structure may show the parent alone.
Experiment: Effect of autoclaving (terminal sterilization) on the product
Assay type: physicochemical
Experimental: Batches of the phenylephrine composition of the present disclosure formulated as in Table 1 were manufactured for the study of the effect of autoclaving on product behavior by autoclaving at a target temperature T=121° C.±1° C. and time at different FOs according to USP <1222>, which is incorporated fully herein by reference.
The table below show the Critical Quality Attributes of the drug product. The objective of this study was to evaluate the quality of the proposed manufacturing process to determine whether the manufacturing process will endure the desired final product study.
The table below show the results of the autoclaving study using several batches of the phenylephrine hydrochloride product formulation of the disclosure, containing 0.08 mg/ml of phenylephrine HCL.

effect of terminal sterilization by autoclaving: caused degradation
Compound: CNC[C@H](O)c1cccc(O)c1 [phenylephrine, benzene methanol, 3-hydroxy-α [(methyl amino)methyl]-hydrochloride (R)]

Source: patent US12383497B2, “Ready-to-use phenylephrine formulations and products” (INFORLIFE SA, priority 2023, dated 2025)
